Where two headings read alike, the source gives them in different places. Square brackets hold non-standard residues; d marks the D form. Ends that are not written are not given here. Peptide text beside a SMILES is read from it. * marks the point of attachment. hArg = N=C(N)NCCCC[C@H](N)C(=O)O; Orn = NCCC[C@H](N)C(=O)O; Hexanoyl = CCCCCC(=O)*; Aib = CC(C)(N)C(=O)O
What was measured:
human VPAC2 = target: T1, human VPAC2 (Homo sapiens, UniProt P41587); experiment: Alpha screen cAMP assay, in vitro potency at human VPAC2 receptor; assay type: cell-based; settings: cAMP generation; single result from two analyses in a single run, some values average of more than one experiment
T1 construct: expressed in transfected cells
T1 sequence (P41587 24-438): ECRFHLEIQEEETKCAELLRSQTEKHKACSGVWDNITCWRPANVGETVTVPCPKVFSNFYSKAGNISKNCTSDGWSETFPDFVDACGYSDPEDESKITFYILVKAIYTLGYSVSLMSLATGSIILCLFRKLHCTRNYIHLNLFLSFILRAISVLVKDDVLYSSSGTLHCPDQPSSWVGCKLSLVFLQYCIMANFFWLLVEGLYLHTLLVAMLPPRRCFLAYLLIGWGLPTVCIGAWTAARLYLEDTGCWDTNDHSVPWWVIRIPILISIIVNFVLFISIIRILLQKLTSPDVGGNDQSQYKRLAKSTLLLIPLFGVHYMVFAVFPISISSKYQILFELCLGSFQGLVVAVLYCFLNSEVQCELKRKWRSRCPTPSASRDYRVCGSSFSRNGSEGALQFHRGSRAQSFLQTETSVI

human PAC1 = target: T2, human PAC1 (Homo sapiens, UniProt P41586); experiment: Filter binding assay, 125I-labeled PACAP-27 tracer, PAC1 membranes; settings: read-out: Human PAC1 Receptor Binding (IC50; nM)
T2 construct: expressed in transfected cells
T2 sequence (P41586 21-468): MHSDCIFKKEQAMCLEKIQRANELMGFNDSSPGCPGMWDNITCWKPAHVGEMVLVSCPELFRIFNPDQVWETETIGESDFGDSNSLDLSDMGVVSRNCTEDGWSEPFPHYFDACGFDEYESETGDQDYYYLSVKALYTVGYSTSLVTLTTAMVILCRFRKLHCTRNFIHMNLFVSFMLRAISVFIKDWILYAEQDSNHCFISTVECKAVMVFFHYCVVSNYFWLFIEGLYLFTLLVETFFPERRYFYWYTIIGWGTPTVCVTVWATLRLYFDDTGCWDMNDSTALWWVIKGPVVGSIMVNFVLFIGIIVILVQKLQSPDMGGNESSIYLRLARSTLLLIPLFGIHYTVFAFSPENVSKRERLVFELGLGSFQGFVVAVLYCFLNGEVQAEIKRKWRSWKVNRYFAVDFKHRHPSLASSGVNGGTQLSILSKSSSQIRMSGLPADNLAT

[1] = Rat serum stability (activity remaining, CHO-VPAC2 DiscoveRx read-out); assay type: in vitro ADME
Procedure: The rat serum is stored at 4° C. until use and is used within two weeks. […] The aliquot is stored with aprotinin at 4° C. The aliquot is stored without aprotinin at 37° C. The aliquots are incubated overnight. […] The plate(s) are washed with cells twice in incubation buffer. The plates are allowed to hold 50 μL incubation media per well for 15 minutes. 50 μL solution per well is transferred to the cells from the plate prepared with 11 serial 5× dilutions of peptide for the 4° C. and 37° C. aliquot for each peptide studied, using the maximal concentrations that are indicated by the primary screen, in duplicate. This step dilutes the peptide concentration by a factor of two. The cells are incubated at room temperature for 30 minutes. […] The cells are incubated on the shaker (300 rpm) for 1 hour. Normal procedure with the DiscoveRx kit is followed. cAMP standards are included in column 12. EC50 values are determined from the cAMP assay data.

human VPAC1 = target: T3, human VPAC1 (Homo sapiens, UniProt P32241); experiment: Filter binding assay, 125I-labeled VIP tracer, VPAC1 membranes; settings: read-out: Human VPAC1 Receptor Binding (IC50; nM)
T3 construct: expressed in transfected cells
T3 sequence (P32241 31-457): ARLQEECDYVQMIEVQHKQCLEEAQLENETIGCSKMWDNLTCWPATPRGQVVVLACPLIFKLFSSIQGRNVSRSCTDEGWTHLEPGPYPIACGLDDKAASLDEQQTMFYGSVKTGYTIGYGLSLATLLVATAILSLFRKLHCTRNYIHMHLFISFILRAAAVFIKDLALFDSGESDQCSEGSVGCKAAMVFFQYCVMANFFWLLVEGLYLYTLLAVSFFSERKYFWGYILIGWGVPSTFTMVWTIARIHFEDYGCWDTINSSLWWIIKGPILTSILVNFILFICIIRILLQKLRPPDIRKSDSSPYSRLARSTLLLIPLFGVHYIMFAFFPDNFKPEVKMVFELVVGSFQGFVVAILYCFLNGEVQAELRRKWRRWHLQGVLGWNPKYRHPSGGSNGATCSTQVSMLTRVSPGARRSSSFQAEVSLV

Compound | EC50 (human VPAC2) [nM] | IC50 (human PAC1) [nM] | Rat Serum Stability (estimated purity in % after overnight incub.) [1] [%] | IC50 (human VPAC1) [nM] | Rat Serum Stability (estimated purity in % after overnight incub.) ([1]; 10 μM peptide in rat serum, overnight at 37° C. vs 4° C. with aprotinin, estimated by EC50, 4C/EC50, 37C) [%]
CCCCCC(=O)N[C@@H](Cc1c[nH]cn1)C(=O)N[C@@H](CO)C(=O)N[C@@H](CC(=O)O)C(=O)N[C@@H](C)C(=O)N[C@H](C(=O)N[C@@H](Cc1ccccc1)C(=O)N[C@H](C(=O)N[C@@H](CC(=O)O)C(=O)N[C@@H](CC(N)=O)C(=O)N[C@@H](Cc1ccc(O)cc1)C(=O)N[C@H](C(=O)N[C@@H](CCCN)C(=O)N[C@@H](CC(C)C)C(=O)N[C@@H](CCCNC(=N)N)C(=O)NC(C)(C)C(=O)N[C@@H](CCC(N)=O)C(=O)N[C@H](C(=O)N[C@@H](C)C(=O)N[C@@H](C)C(=O)NC(C)(C)C(=O)N[C@@H](CO)C(=O)N[C@@H](Cc1ccc(O)cc1)C(=O)N[C@@H](CC(C)C)C(=O)N[C@@H](CCC(N)=O)C(=O)N[C@@H](CO)C(=O)N[C@H](C(=O)N[C@@H](CCCN)C(=O)N[C@@H](CC(N)=O)C(=O)N[C@@H](CCCN)C(=O)NCC(=O)NCC(=O)N1CCC[C@H]1C(=O)N[C@@H](CO)C(=O)N[C@@H](CO)C(=O)NCC(=O)N[C@@H](C)C(=O)N1CCC[C@H]1C(=O)N1CCC[C@H]1C(=O)N1CCC[C@H]1C(=O)N[C@@H](CO)C(=O)O)[C@@H](C)CC)C(C)C)[C@@H](C)O)[C@@H](C)O)C(C)C [Agonist P386] (Hexanoyl-HSDAVFTDNYT[Orn]LR[Aib]QVAA[Aib]SYLQSI[Orn]N[Orn]GGPSSGAPPPS-OH; C-terminus assumed) | 0.65 | > 25000 | 71.47 | > 3000 | 
CCCCCC(=O)N[C@@H](Cc1c[nH]cn1)C(=O)N[C@@H](CO)C(=O)N[C@@H](CC(=O)O)C(=O)N[C@@H](C)C(=O)N[C@H](C(=O)N[C@@H](Cc1ccccc1)C(=O)N[C@H](C(=O)N[C@@H](CC(=O)O)C(=O)N[C@@H](CC(N)=O)C(=O)N[C@@H](Cc1ccc(O)cc1)C(=O)N[C@H](C(=O)N[C@@H](CCCN)C(=O)N[C@@H](CO)C(=O)N[C@@H](CCCNC(=N)N)C(=O)NC(C)(C)C(=O)N[C@@H](CCC(N)=O)C(=O)N[C@H](C(=O)N[C@@H](C)C(=O)N[C@@H](C)C(=O)NC(C)(C)C(=O)N[C@@H](CCCCN)C(=O)N[C@@H](Cc1ccc(O)cc1)C(=O)N[C@@H](CC(C)C)C(=O)N[C@@H](CCC(N)=O)C(=O)N[C@@H](CO)C(=O)N[C@H](C(=O)N[C@@H](CCCN)C(=O)N[C@@H](CC(N)=O)C(=O)N[C@@H](CCCN)C(=O)NCC(=O)NCC(=O)N1CCC[C@H]1C(=O)N[C@@H](CO)C(=O)N[C@@H](CO)C(=O)NCC(=O)N[C@@H](C)C(=O)N1CCC[C@H]1C(=O)N1CCC[C@H]1C(=O)N1CCC[C@H]1C(=O)N[C@@H](CO)C(=O)O)[C@@H](C)CC)C(C)C)[C@@H](C)O)[C@@H](C)O)C(C)C [Agonist P391] (Hexanoyl-HSDAVFTDNYT[Orn]SR[Aib]QVAA[Aib]KYLQSI[Orn]N[Orn]GGPSSGAPPPS-OH; C-terminus assumed) | 0.48 | > 25000 |  |  | 
CCCCCC(=O)N[C@@H](Cc1c[nH]cn1)C(=O)N[C@@H](CO)C(=O)N[C@@H](CC(=O)O)C(=O)N[C@@H](C)C(=O)N[C@H](C(=O)N[C@@H](Cc1ccccc1)C(=O)N[C@H](C(=O)N[C@@H](CC(=O)O)C(=O)N[C@@H](CC(N)=O)C(=O)N[C@@H](Cc1ccc(O)cc1)C(=O)N[C@H](C(=O)N[C@@H](CCCN)C(=O)N[C@@H](CC(C)C)C(=O)N[C@@H](CCCNC(=N)N)C(=O)NC(C)(C)C(=O)N[C@@H](CCC(N)=O)C(=O)N[C@H](C(=O)N[C@@H](C)C(=O)N[C@@H](C)C(=O)NC(C)(C)C(=O)N[C@@H](CCCN)C(=O)N[C@@H](Cc1ccc(O)cc1)C(=O)N[C@@H](CC(C)C)C(=O)N[C@@H](CCC(N)=O)C(=O)N[C@@H](CO)C(=O)N[C@H](C(=O)N[C@@H](CCCN)C(=O)N[C@@H](CCCN)C(=O)NCC(=O)NCC(=O)N1CCC[C@H]1C(=O)N[C@@H](CO)C(=O)N[C@@H](CO)C(=O)NCC(=O)N[C@@H](C)C(=O)N1CCC[C@H]1C(=O)N1CCC[C@H]1C(=O)N1CCC[C@H]1C(=O)N[C@@H](CO)C(=O)O)[C@@H](C)CC)C(C)C)[C@@H](C)O)[C@@H](C)O)C(C)C [Agonist P397] (Hexanoyl-HSDAVFTDNYT[Orn]LR[Aib]QVAA[Aib][Orn]YLQSI[Orn][Orn]GGPSSGAPPPS-OH; C-terminus assumed) | 0.15 | > 25000 | 71.07 | > 3000 | 
CCCCCC(=O)N[C@@H](Cc1c[nH]cn1)C(=O)N[C@@H](CO)C(=O)N[C@@H](CC(=O)O)C(=O)N[C@@H](C)C(=O)N[C@H](C(=O)N[C@@H](Cc1ccccc1)C(=O)N[C@H](C(=O)N[C@@H](CC(=O)O)C(=O)N[C@@H](CC(N)=O)C(=O)N[C@@H](Cc1ccc(O)cc1)C(=O)N[C@H](C(=O)N[C@@H](CCCN)C(=O)N[C@@H](CC(C)C)C(=O)N[C@@H](CC(C)C)C(=O)N[C@@H](C)C(=O)N[C@@H](CCCCN)C(=O)N[C@@H](CC(C)C)C(=O)N[C@@H](C)C(=O)N[C@@H](CC(C)C)C(=O)N[C@@H](CCC(N)=O)C(=O)N[C@@H](CCCCN)C(=O)N[C@@H](Cc1ccc(O)cc1)C(=O)N[C@@H](CC(C)C)C(=O)N[C@@H](CCC(N)=O)C(=O)N[C@@H](CO)C(=O)N[C@H](C(=O)N[C@@H](CCCN)C(=O)N[C@@H](CC(N)=O)C(=O)N[C@@H](CCCN)C(=O)NCC(=O)NCC(=O)N1CCC[C@H]1C(=O)N[C@@H](CO)C(=O)N[C@@H](CO)C(=O)NCC(=O)N[C@@H](C)C(=O)N1CCC[C@H]1C(=O)N1CCC[C@H]1C(=O)N1CCC[C@H]1C(=O)N[C@@H](CO)C(=O)O)[C@@H](C)CC)[C@@H](C)O)[C@@H](C)O)C(C)C [Agonist P371] (Hexanoyl-HSDAVFTDNYT[Orn]LLAKLALQKYLQSI[Orn]N[Orn]GGPSSGAPPPS-OH; C-terminus assumed) | 0.13 | > 25000 |  |  | 
Hexanoyl-HSDAVFTDNYT[hArg]LR[Aib]QVAA[Aib]KYLQSIKNKRYGGPSSGAPPPS [Agonist P343] |  | > 25000 |  | > 3000 | 34.46
CCCCCC(=O)N[C@@H](Cc1c[nH]cn1)C(=O)N[C@@H](CO)C(=O)N[C@@H](CC(=O)O)C(=O)N[C@@H](C)C(=O)N[C@H](C(=O)N[C@@H](Cc1ccccc1)C(=O)N[C@H](C(=O)N[C@@H](CC(=O)O)C(=O)N[C@@H](CC(N)=O)C(=O)N[C@@H](Cc1ccc(O)cc1)C(=O)N[C@H](C(=O)N[C@@H](CCCN)C(=O)N[C@@H](CC(C)C)C(=O)N[C@@H](CCCNC(=N)N)C(=O)NC(C)(C)C(=O)N[C@@H](CCC(N)=O)C(=O)N[C@H](C(=O)N[C@@H](C)C(=O)N[C@@H](C)C(=O)NC(C)(C)C(=O)N[C@@H](CCCCN)C(=O)N[C@@H](Cc1ccc(O)cc1)C(=O)N[C@@H](CC(C)C)C(=O)N[C@@H](CCC(N)=O)C(=O)N[C@@H](CO)C(=O)N[C@@H](CO)C(=O)N[C@@H](CCCN)C(=O)N[C@@H](CC(N)=O)C(=O)N[C@@H](CCCN)C(=O)NCC(=O)NCC(=O)N1CCC[C@H]1C(=O)N[C@@H](CO)C(=O)N[C@@H](CO)C(=O)NCC(=O)N[C@@H](C)C(=O)N1CCC[C@H]1C(=O)N1CCC[C@H]1C(=O)N1CCC[C@H]1C(=O)N[C@@H](CO)C(=O)O)C(C)C)[C@@H](C)O)[C@@H](C)O)C(C)C [Agonist P382] (Hexanoyl-HSDAVFTDNYT[Orn]LR[Aib]QVAA[Aib]KYLQSS[Orn]N[Orn]GGPSSGAPPPS-OH; C-terminus assumed) |  | > 25000 | 92.34 | > 3000 | 

Reference: patent US20080194482A1, “Selective Apac2 Receptor Peptide Agonists” (priority 2005, published 2008)
